In PubChem BioAssay AID256 (DTP/NCI, 2004):
Several values for one entry are separate records, joined by “and”; a condition that tells them apart may be missing. Equal entries are not always repeated. Toxic doses and inconclusive results are not listed. The calls were made as follows: active = survival T/C of 150% or more; inactive = T/C below 125% in these data.

Tested on: CD2F1 mice, L1210 leukemia ip, survival T/C
Experiment: NCI In Vivo Anticancer Drug Screen. Data for tumor model L1210 Leukemia (intraperitoneal) in CD2F1 (CDF1) mice
Details: higher = longer survival
In short: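 Tumor-bearing mice (transplanted tumor) were split into treated and vehicle control groups, and the measured endpoint of each treated group was divided by that of its vehicle controls.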

[1] = endpoint: mean survival time, dose: 12.5 mg/kg/injection, schedule: Q01DX009 (ip), vehicle: saline with Tween-80
[2] = endpoint: mean survival time, dose: 50.0 mg/kg/injection, schedule: Q01DX009 (ip), vehicle: saline with Tween-80
[3] = endpoint: mean survival time, dose: 100.0 mg/kg/injection, schedule: Q01DX009 (ip), vehicle: saline with Tween-80
[4] = endpoint: mean survival time, dose: 200.0 mg/kg/injection, schedule: Q01DX009 (ip), vehicle: saline with Tween-80
[5] = endpoint: mean survival time, dose: 100.0 mg/kg/injection, schedule: Q04DX002 (ip), vehicle: saline with Tween-80
[6] = endpoint: mean survival time, dose: 200.0 mg/kg/injection, schedule: Q04DX002 (ip), vehicle: saline with Tween-80
[7] = endpoint: mean survival time, dose: 400.0 mg/kg/injection, schedule: Q04DX002 (ip), vehicle: saline with Tween-80
[8] = endpoint: mean survival time, dose: 12.5 mg/kg/injection, schedule: Q01DX001 (ip), vehicle: saline with Tween-80
[9] = endpoint: mean survival time, dose: 25.0 mg/kg/injection, schedule: Q01DX001 (ip), vehicle: saline with Tween-80
[10] = endpoint: mean survival time, dose: 100.0 mg/kg/injection, schedule: Q01DX009 (ip), vehicle: saline
[11] = endpoint: mean survival time, dose: 200.0 mg/kg/injection, schedule: Q01DX009 (ip), vehicle: saline
[12] = endpoint: mean survival time, dose: 400.0 mg/kg/injection, schedule: Q01DX009 (ip), vehicle: saline
[13] = endpoint: mean survival time, dose: 100.0 mg/kg/injection, schedule: Q01DX001 (ip), vehicle: saline with Tween-80
[14] = endpoint: mean survival time, dose: 200.0 mg/kg/injection, schedule: Q01DX001 (ip), vehicle: saline with Tween-80
[15] = endpoint: mean survival time, dose: 400.0 mg/kg/injection, schedule: Q01DX001 (ip), vehicle: saline with Tween-80
[16] = endpoint: mean survival time, dose: 400.0 mg/kg/injection, schedule: Q01DX009 (ip), vehicle: saline with Tween-80
[17] = endpoint: mean survival time, dose: 100.0 mg/kg/injection, schedule: Q04DX003 (ip), vehicle: saline with Tween-80
[18] = endpoint: mean survival time, dose: 200.0 mg/kg/injection, schedule: Q04DX003 (ip), vehicle: saline with Tween-80
[19] = endpoint: mean survival time, dose: 400.0 mg/kg/injection, schedule: Q04DX003 (ip), vehicle: saline with Tween-80

Measured: T/C

ClC1CC[N-]CC1.ClC1CC[N-]CC1.O=C(O)CC(=O)O.[Pt+2]
inactive: [1] 96 % of control | endpoint: mean survival time, dose: 25.0 mg/kg/injection, schedule: Q01DX009 (ip), vehicle: saline with Tween-80 94 % of control | [2] 102 % of control | [3] 104 % of control | [4] 96 % of control

OC1CCCN(c2c3ccccc3nc3ccccc23)C1 (stereo not drawn)
inactive: [5] 100 % of control | [6] 92 % of control | [7] 100 % of control

Cc1cc(NC(=O)Nc2cc(F)ccc2F)no1
inactive: endpoint: mean survival time, dose: 25.0 mg/kg/injection, schedule: Q01DX009 (ip), vehicle: Klucel (hydroxypropylcellulose) (HPC) 101 % of control | endpoint: mean survival time, dose: 50.0 mg/kg/injection, schedule: Q01DX009 (ip), vehicle: Klucel (hydroxypropylcellulose) (HPC) 103 % of control | endpoint: mean survival time, dose: 100.0 mg/kg/injection, schedule: Q01DX009 (ip), vehicle: Klucel (hydroxypropylcellulose) (HPC) 101 % of control

CN1CCC23CC=CCC2C1Cc1ccc([N+](=O)[O-])cc13 (stereo not drawn)
inactive: endpoint: mean survival time, dose: 6.25 mg/kg/injection, schedule: Q01DX001 (ip), vehicle: saline with Tween-80 103 % of control | [8] 105 % of control | [9] 105 % of control

c1cncc(C2OCCO2)c1
inactive: [10] 105 % of control | [11] 100 % of control | [12] 100 % of control

CC(=O)Nc1cc(Cl)ccc1C(=O)O
inactive: [2] 96 % of control | [3] 98 % of control | [4] 100 % of control

O=S(O)c1ccccc1
inactive: endpoint: mean survival time, dose: 100.0 mg/kg/injection, schedule: Q01DX001 (ip), vehicle: saline 92 % of control | endpoint: mean survival time, dose: 200.0 mg/kg/injection, schedule: Q01DX001 (ip), vehicle: saline 94 % of control | endpoint: mean survival time, dose: 400.0 mg/kg/injection, schedule: Q01DX001 (ip), vehicle: saline 110 % of control

C=C(C)C12CC(COC(=O)c3ccccc3)C34OC5(OC1C3C1OC1(COC(=O)CCCCCCCCCCCCCCC)C(O)C1(O)C(OC(=O)c3ccccc3)C(C)C(C(C)CCCCCCC5O)C14)O2 (stereo not drawn)
inactive: endpoint: mean survival time, dose: 6.3 micrograms/kg/injection, schedule: Q01DX009 (ip), vehicle: saline 107 % of control | endpoint: mean survival time, dose: 12.5 micrograms/kg/injection, schedule: Q01DX009 (ip), vehicle: saline 103 % of control | endpoint: mean survival time, dose: 25.0 micrograms/kg/injection, schedule: Q01DX009 (ip), vehicle: saline 102 % of control | endpoint: mean survival time, dose: 50.0 micrograms/kg/injection, schedule: Q01DX009 (ip), vehicle: saline 105 % of control

O=C(COc1ccc(Cl)cc1C(=O)O)NCc1ccc(NC(=O)Nc2ccc(S(=O)(=O)F)cc2)cc1
inactive: [13] 96 % of control | [14] 91 % of control | [15] 91 % of control

COC(=O)N/N=C/Cc1ccccc1
inactive: [3] 93 % of control

C(=C(/C=C/c1ccccc1)/C=C/c1ccccc1)C(=C/c1ccccc1)/c1ccccc1
inactive: [8] 100 % of control | [1] 91 % of control | [9] 90 % of control | endpoint: mean survival time, dose: 50.0 mg/kg/injection, schedule: Q01DX001 (ip), vehicle: saline with Tween-80 92 % of control | [2] 86 % of control

CCOc1ccc2cc(S(=O)(=O)O)ccc2c1N
inactive: endpoint: mean survival time, dose: 100.0 mg/kg/injection, schedule: Q04DX003 (ip), vehicle: saline 93 % of control | endpoint: mean survival time, dose: 200.0 mg/kg/injection, schedule: Q04DX003 (ip), vehicle: saline 95 % of control | endpoint: mean survival time, dose: 400.0 mg/kg/injection, schedule: Q04DX003 (ip), vehicle: saline 103 % of control

O=C1C=C(c2ccccc2)C(c2ccccc2)C(c2ccccc2)C1 (stereo not drawn)
inactive: [3] 93 % of control | [4] 93 % of control | [16] 96 % of control

COc1cc([N+](=O)[O-])ccc1NC(=O)N1CCCC(C)C1 (stereo not drawn)
inactive: [13] 94 % of control and 95 % of control | [3] 88 % of control and 93 % of control | [5] 98 % of control | [17] 101 % of control | [14] 86 % of control and 89 % of control | [4] 95 % of control and 106 % of control | [6] 98 % of control | [18] 103 % of control | [15] 86 % of control | [16] 88 % of control and 98 % of control | [7] 96 % of control | [19] 100 % of control

OC1C2c3ccccc3C(c3c2ccc2ccccc32)C1O (stereo not drawn)
inactive: endpoint: median survival time, dose: 25.0 mg/kg/injection, schedule: Q04DX003 (ip), vehicle: saline with Tween-80 100 % of control | endpoint: median survival time, dose: 50.0 mg/kg/injection, schedule: Q04DX003 (ip), vehicle: saline with Tween-80 100 % of control | endpoint: median survival time, dose: 100.0 mg/kg/injection, schedule: Q04DX003 (ip), vehicle: saline with Tween-80 100 % of control | endpoint: median survival time, dose: 200.0 mg/kg/injection, schedule: Q04DX003 (ip), vehicle: saline with Tween-80 88 % of control

C1=C(c2ccccc2)NCC1c1ccccc1 (stereo not drawn)
inactive: [13] 94 % of control | [14] 86 % of control | [15] 89 % of control

COc1ccc(OC)c(/C=C/c2cnnc3ccccc23)c1
inactive: endpoint: mean survival time, dose: 18.75 mg/kg/injection, schedule: Q04DX003 (ip), vehicle: Klucel (hydroxypropylcellulose) (HPC) 102 % of control | endpoint: mean survival time, dose: 37.5 mg/kg/injection, schedule: Q04DX003 (ip), vehicle: Klucel (hydroxypropylcellulose) (HPC) 104 % of control | endpoint: mean survival time, dose: 75.0 mg/kg/injection, schedule: Q04DX003 (ip), vehicle: Klucel (hydroxypropylcellulose) (HPC) 114 % of control | endpoint: mean survival time, dose: 150.0 mg/kg/injection, schedule: Q04DX003 (ip), vehicle: Klucel (hydroxypropylcellulose) (HPC) 104 % of control | endpoint: mean survival time, dose: 300.0 mg/kg/injection, schedule: Q04DX003 (ip), vehicle: Klucel (hydroxypropylcellulose) (HPC) 108 % of control

CCOc1cccc(Cl)n1
inactive: [3] 94 % of control | [17] 101 % of control | [4] 102 % of control | [18] 98 % of control | [19] 98 % of control

N=C(N)SCCc1ccccc1
inactive: endpoint: mean survival time, dose: 12.5 mg/kg/injection, schedule: Q01DX001 (ip), vehicle: saline 95 % of control | endpoint: mean survival time, dose: 25.0 mg/kg/injection, schedule: Q01DX001 (ip), vehicle: saline 100 % of control | endpoint: mean survival time, dose: 50.0 mg/kg/injection, schedule: Q01DX001 (ip), vehicle: saline 103 % of control

COC(OC)c1ccc(Cl)nc1
inactive: [13] 98 % of control | [3] 96 % of control | [14] 101 % of control | [4] 94 % of control | [15] 101 % of control | [16] 92 % of control

CCOC(=O)/C(N=O)=C(/C)O
inactive: [10] 96 % of control | [11] 101 % of control | [12] 110 % of control
